In series [1] the test system is full thickness cutaneous excisional wounds (punch biopsies). Put plainly: Wound width three days after punch biopsies in human volunteers (histological assessment). The series is classed as in vivo. To be noted: day 3; for average wound width: single intradermal injection 10-30 min before 3 mm punch biopsy. From the text: A single site, double-blind study was undertaken to illustrate the efficacy of medicaments of the invention in promoting contraction of punch biopsy wounds in healthy male and post-menopausal female subjects. The control treatments used in this study were Placebo (vehicle) and Standard Care (moist wound healing dressings).
44 healthy subjects were recruited to the study, of whom, 40 were healthy males (aged 18-75years) and 4 were post-menopausal females (aged 53-69 years). The average age of subjects recruited to this study was 42 years. The post-menopausal status of female subjects was confirmed by quantification of serum levels of estradiol and follicle stimulating hormone (FSH). Serum levels of estradiol were required to be <90 pmol/L, and follicle stimulating hormone levels >31 IU/L.
Before wounding, each subject received either a medicament of the invention (providing a 100 μl intradermal injection of a solution comprising 400 ng of 17β-oestradiol in a diluent comprising PBS and 5% v/v ethanol), or a control medicament (two used, providing a 100 μl intradermal injection of a solution comprising either 20 ng or 100 ng respectively of 17β-oestradiol in a diluent comprising PBS and 5% v/v ethanol). The experimental medicaments (either of the invention or control) were administered intradermally as a single dose at a volume of 100 μl per wound site, 10-30 minutes before wounding to sites on the upper, inner aspect of the arm. This administration was sufficient to prophylactically “prime” an area of 1 cm^2 of unwounded skin prior to wounding. Wounds were made with a 3 mm punch biopsy.
Biopsy sites were excised, using a 5 mm punch biopsy, three days after wounding. Excised wounds were preserved for histological assessment of wound width. All histological assessments were made using preserved 5 micron-thickness wound sections taken from the widest part of each excised biopsy site. Sections were stained with Haematoxylin and Eosin to aid visualisation of structural features, and measurements made using image analysis software. The wound diameter is the linear total wound diameter of the wound section measured in micrometres. The average wound diameter value was calculated from the 44 wounds of each treatment group.

The conditions of series [2]: 100 μg of oestradiol applied in a gel; six hours from application; cited from earlier work.
The conditions of series [3]: matrix of U.S. Pat. No. 5,252,334, without drug delivery rate enhancers; cited from earlier work.

Turning to `C[C@]12CC[C@@H]3c4ccc(O)cc4CC[C@H]3[C@@H]1CC[C@@H]2O` [17β-oestradiol], the average wound width in series [1] (20 ng 17β-oestradiol in 100 μl PBS/5% v/v ethanol, control medicament) was found to be 2626 μm; in series [1] (100 ng 17β-oestradiol in 100 μl PBS/5% v/v ethanol, control medicament) it was 2612 μm; in series [1] (400 ng 17β-oestradiol in 100 μl PBS/5% v/v ethanol, medicament of the invention), 2480 μm. For the same molecule, in series [1] (400 ng 17β-oestradiol, intradermal), the “wound width compared to control treated or untreated wounds” value was “significantly decreased”. Also, the “amount of applied oestradiol found in the skin or having passed through the skin” value in series [2] is 15.7 µg. Moreover, the “rate of administration per hour per square centimetre of skin” value in series [3] is “approximately 0.2 μg”.

(Values after US20080153796A1, “Promotion of wound contraction” (RENOVO LIMITED, priority 2006, published 2008).)
